Molecular target: T1, dmJMJD7 (Drosophila melanogaster, UniProt Q9VU77)
T1 construct: gene JMJD7; full-length dmJMJD7, aa 1–316, N-terminally His6-tagged
Assay: crystal structure
Assay type: binding

T1 sequence (Q9VU77 whole entry, the tested form may be a part): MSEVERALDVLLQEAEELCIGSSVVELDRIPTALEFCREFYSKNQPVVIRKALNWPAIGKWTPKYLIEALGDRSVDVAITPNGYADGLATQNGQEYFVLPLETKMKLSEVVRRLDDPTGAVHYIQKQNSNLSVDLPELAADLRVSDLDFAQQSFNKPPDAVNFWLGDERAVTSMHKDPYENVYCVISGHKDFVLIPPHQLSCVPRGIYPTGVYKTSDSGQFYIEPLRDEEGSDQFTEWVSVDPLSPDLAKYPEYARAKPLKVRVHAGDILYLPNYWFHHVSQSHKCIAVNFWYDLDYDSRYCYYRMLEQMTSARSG

SMILES | crystal structure
O=C(O)C(=O)N[C@H](Cc1ccccc1)C(=O)O [NOFD, N-oxalyl-D-phenylalanine] | dmJMJD7.N-oxalyl-D-phenylalanine (PDB: 7YXL)
O=C(O)CCC(=O)O [succinate] | dmJMJD7.succinate (PDB: 7YXH)
O=C(O)CCC(=O)C(=O)O [2OG, 2-oxoglutarate] | crystals of His6-dmJMJD7.Mn complexed with its co-substrate 2OG or co-product succinate

Molecular target: T1, dmJMJD7
Assay: crystal structure; SPE-MS inhibition assay with DRG1 peptide
Assay type: biochemical

IC50 [nM] | SMILES
4140 | C[C@@H](NC(=O)C(=O)O)C(=O)O [NODA, N-oxalyl-D-alanine]
1340 | O=C(O)c1ccnc(C(=O)O)c1 [2,4-PDCA, pyridine-2,4-dicarboxylate]
300 | O=C(O)CNC(=O)C(=O)O [NOG, N-oxalylglycine]

From article PMC9001643, “Conservation of the unusual dimeric JmjC fold of JMJD7 from Drosophila melanogaster to humans” (Scientific Reports, 2022)
